# Legend:
# [1] = test system: Staphylococcus aureus SA1199B; assay type: cell-based
# Experimental: (§1) The MIC's were determined using a standard broth micro-dilution assay.
# [2] = test system: Staphylococcus aureus S13E; assay type: cell-based
# Experimental: as §1
# [3] = test system: Staphylococcus aureus 489; experiment: broth micro-dilution MIC; assay type: cell-based
# Experimental: as §1
# [4] = test system: Staphylococcus aureus SA1199A; experiment: broth micro-dilution MIC; assay type: cell-based
# Experimental: as §1
# [5] = test system: Entercoccus faecium 180-1; experiment: broth micro-dilution MIC; assay type: cell-based
# Experimental: as §1
# [6] = test system: Staphylococcus aureus X778; experiment: broth micro-dilution MIC; assay type: cell-based
# Experimental: as §1
# [7] = test system: Staphylococcus aureus 446; experiment: broth micro-dilution MIC; assay type: cell-based
# Experimental: as §1
# [8] = test system: Entercoccus faecium 276; experiment: broth micro-dilution MIC; assay type: cell-based
# Experimental: as §1
# [9] = test system: Staphylococcus aureus SA1199; experiment: broth micro-dilution MIC; assay type: cell-based
# Experimental: as §1
# [10] = test system: Staphylococcus aureus 447; experiment: broth micro-dilution MIC; assay type: cell-based
# Experimental: as §1
# [11] = test system: Streptococcus pyogenes C203; experiment: broth micro-dilution MIC; assay type: cell-based
# Experimental: as §1
# [12] = test system: Staphylococcus aureus X400; experiment: broth micro-dilution MIC; assay type: cell-based
# Experimental: as §1
# [13] = test system: Staphylococcus haemolyticus 415; experiment: broth micro-dilution MIC; assay type: cell-based
# Experimental: (§2) The formula I compounds have in vitro and in vivo activity against Gram-positive pathogenic bacteria. The MIC's were determined using a standard broth micro-dilution assay.
# [14] = test system: Staphylococcus haemolyticus 105; experiment: broth micro-dilution MIC; assay type: cell-based
# Experimental: as §2
# [15] = test system: Staphylococcus epidermidis 270; experiment: broth micro-dilution MIC; assay type: cell-based
# Experimental: as §2
# [16] = test system: Entercoccus faecium 180; experiment: broth micro-dilution MIC; assay type: cell-based; conditions: Entercoccus faecium 180
# Experimental: as §2
# [17] = test system: Streptococcus pneumoniae P1; experiment: broth micro-dilution MIC; assay type: cell-based
# Experimental: as §2
# [18] = test system: Enterococcus gallinarum 245; experiment: broth micro-dilution MIC; assay type: cell-based; conditions: Enterococcus gallinarum 245
# Experimental: as §2
# [19] = test system: Entercoccus faecium 2041; experiment: broth micro-dilution MIC; assay type: cell-based; conditions: Entercoccus faecium 2041
# Experimental: as §2
# [20] = test system: vancomycin-resistant enterococci; experiment: broth micro-dilution, mean geometric MIC; assay type: cell-based, Enterococcus faecium and Enterococcus faecalis; conditions: enterococci, 24-hour incubation
# [21] = test system: vancomycin-susceptible enterococci; experiment: broth micro-dilution, mean geometric MIC; assay type: cell-based, Enterococcus faecium and Enterococcus faecalis; conditions: enterococci, 24-hour incubation
SMILES,MIC [1] [µg/mL],MIC [2] [µg/mL],MIC [3] [µg/mL],MIC [4] [µg/mL],MIC [5] [µg/mL],MIC [6] [µg/mL],MIC [7] [µg/mL],MIC [8] [µg/mL],MIC [9] [µg/mL],MIC [10] [µg/mL],MIC [11] [µg/mL],MIC [12] [µg/mL],MIC [13] [µg/mL],MIC [14] [µg/mL],MIC [15] [µg/mL],MIC [16] [µg/mL],MIC [17] [µg/mL],MIC [18] [µg/mL],MIC [19] [µg/mL],"mean geometric MIC, Vancomycin Resistant Strains [20] [µg/mL]",further results
CNC(CC(C)C)C(=O)NC1C(=O)NC(CC(N)=O)C(=O)NC2C(=O)NC3C(=O)NC(C(=O)NC(C(=O)O)c4cc(O)cc(O)c4-c4cc3ccc4O)C(OC3CC(C)(N)C(O)C(C)O3)c3ccc(c(Cl)c3)Oc3cc2cc(c3OC2OC(CO)C(O)C(O)C2OC2CC(C)(NCc3cccc(OC(C)=O)c3)C(O)C(C)O2)Oc2ccc(cc2Cl)C1O (centres unmarked) [Compound 77],0.125,0.125,≤ 0.06,≤ 0.06,0.125,≤ 0.06,≤ 0.06,0.25,≤ 0.06,1,≤ 0.06,≤ 0.06,8,2,0.5,8,≤ 0.06,0.25,0.25,,
CNC(CC(C)C)C(=O)NC1C(=O)NC(CC(N)=O)C(=O)NC2C(=O)NC3C(=O)NC(C(=O)NC(C(=O)O)c4cc(O)cc(O)c4-c4cc3ccc4O)C(OC3CC(C)(N)C(O)C(C)O3)c3ccc(c(Cl)c3)Oc3cc2cc(c3OC2OC(CO)C(O)C(O)C2OC2CC(C)(NCc3sccc3-c3cccs3)C(O)C(C)O2)Oc2ccc(cc2Cl)C1O (centres unmarked) [Compound 238],0.5,0.125,0.5,≤ 0.06,≤ 0.06,0.5,1,≤ 0.06,0.5,0.5,≤ 0.06,1,2,0.5,0.5,0.125,≤ 0.06,≤ 0.06,≤ 0.06,1.4,"mean geometric MIC, Vancomycin Sensitive Strains [21]: 0.14 µg/mL"
CNC(CC(C)C)C(=O)NC1C(=O)NC(CC(N)=O)C(=O)NC2C(=O)NC3C(=O)NC(C(=O)NC(C(=O)O)c4cc(O)cc(O)c4-c4cc3ccc4O)C(OC3CC(C)(N)C(O)C(C)O3)c3ccc(c(Cl)c3)Oc3cc2cc(c3OC2OC(CO)C(O)C(O)C2OC2CC(C)(NCC3CCC(Cc4ccccc4)CC3)C(O)C(C)O2)Oc2ccc(cc2Cl)C1O (centres unmarked) [Compound 241],1,,0.5,≤ 0.06,≤ 0.06,1,0.5,≤ 0.06,1,1,≤ 0.06,0.5,1,1,0.5,≤ 0.06,≤ 0.06,≤ 0.06,≤ 0.06,1.4,"mean geometric MIC, Vancomycin Sensitive Strains [21]: 0.048 µg/mL"
CNC(CC(C)C)C(=O)NC1C(=O)NC(CC(N)=O)C(=O)NC2C(=O)NC3C(=O)NC(C(=O)NC(C(=O)O)c4cc(O)cc(O)c4-c4cc3ccc4O)C(OC3CC(C)(N)C(O)C(C)O3)c3ccc(cc3)Oc3cc2cc(c3OC2OC(CO)C(O)C(O)C2OC2CC(C)(NCc3ccc(-c4ccccc4)cc3)C(O)C(C)O2)Oc2ccc(cc2)C1O (centres unmarked) [Compound 183],≤ 0.06,≤ 0.06,≤ 0.06,≤ 0.06,≤ 0.06,≤ 0.06,≤ 0.06,,≤ 0.06,≤ 0.06,≤ 0.06,≤ 0.06,≤ 0.06,≤ 0.06,≤ 0.06,2,≤ 0.06,0.5,≤ 0.06,23,"mean geometric MIC, Vancomycin Sensitive Strains [21]: 0.130 µg/mL"
